Laboratory results as given in patent publication US10689354B2, “Aminoazole derivative” (Teijin Pharma Limited, priority 2015, dated 2020).

target: T1, androgen receptor (AR-LBD) (Rattus norvegicus, UniProt P15207); test: Evaluation of androgen receptor affinity (PolarScreen Androgen Receptor Competitor Assay Kit, Red; fluorescence polarization); settings: 22° C. for 5 hours, relative to binding rate of 1 μM DHT, read-out: AR affinity (pEC50) (converted)
T1 construct: 5 μL of 2×AR-LBD/Fluoromone AL Red Complex contained in the kit; purchased Invitrogen
T1 sequence (P15207 651-882 limits assumed): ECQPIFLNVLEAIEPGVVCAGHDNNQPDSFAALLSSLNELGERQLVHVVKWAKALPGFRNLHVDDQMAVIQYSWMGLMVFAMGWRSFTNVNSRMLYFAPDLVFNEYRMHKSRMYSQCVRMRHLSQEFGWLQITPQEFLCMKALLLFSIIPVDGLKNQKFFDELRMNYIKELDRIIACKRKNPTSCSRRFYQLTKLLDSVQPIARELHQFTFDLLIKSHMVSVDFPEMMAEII
Outline: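 pEC50 values reflect tracer displacement from AR-LBD (Fluoromone AL Red complex) measured by fluorescence polarization after 5 h at 22° C, normalized to 1 μM DHT and fitted with a 4-parameter model.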

| EC50 [nM] | SMILES |
| --- | --- |
| > 2000 | Cc1sc(N(C)Cc2ccccc2)nc1C(=O)NS(C)(=O)=O [Example 292, 2-[benzyl(methyl)amino]-5-methyl-N-methylsulfonyl-thiazole-4-carboxamide] |
| > 2000 | Cc1sc(N(CCC(O)CO)Cc2ccccc2)nc1C(=O)NS(C)(=O)=O (stereo not shown) [Compound 712, 2-[benzyl(3,4-dihydroxybutyl)amino]-5-methyl-N-methylsulfonyl-thiazole-4-carboxamide] |
| > 2000 | Cc1sc(N(Cc2ccccc2)c2ccccc2C#N)nc1C(=O)NS(C)(=O)=O [Example 233, 2-(N-benzyl-2-cyano-anilino)-5-methyl-N-methylsulfonyl-thiazole-4-carboxamide] |
| > 2000 | Cc1sc(N(CCc2coc3ccccc23)Cc2ccccc2)nc1C(=O)NS(C)(=O)=O [Compound 707, 2-[2-(benzofuran-3-yl)ethyl-benzyl-amino]-5-methyl-N-methylsulfonyl-thiazole-4-carboxamide] |
| 631 | Cc1sc(N(Cc2ccccc2)c2ccc(C(F)(F)F)nn2)nc1C(=O)NS(C)(=O)=O [Example 237, 2-[benzyl-[6-(trifluoromethyl)pyridazin-3-yl]amino]-5-methyl-N-methylsulfonyl-thiazole-4-carboxamide] |
| > 2000 | Cc1sc(N(CCn2cccc2)Cc2ccccc2)nc1C(=O)NS(C)(=O)=O [Example 309, 2-[benzyl(2-pyrrol-1-ylethyl)amino]-5-methyl-N-methylsulfonyl-thiazole-4-carboxamide] |
| > 2000 | Cc1sc(N(Cc2ccccc2)c2ccc3ccn(C)c3c2)nc1C(=O)NS(C)(=O)=O [Compound 746, 2-[benzyl-(1-methylindol-6-yl)amino]-5-methyl-N-methylsulfonyl-thiazole-4-carboxamide] |
| 631 | Cc1sc(N(Cc2ccccc2)C2CCCC2)nc1C(=O)NS(C)(=O)=O [Compound 669, 2-[benzyl(cyclopentyl)amino]-5-methyl-N-methylsulfonyl-thiazole-4-carboxamide] |
| > 2000 | Cc1sc(N(Cc2ccccc2)c2cccc(CO)c2)nc1C(=O)NS(C)(=O)=O [Example 229, 2-[N-benzyl-3-(hydroxymethyl)anilino]-5-methyl-N-methylsulfonyl-thiazole-4-carboxamide] |
| > 2000 | Cc1sc(N(CCC2CCN(C(=O)OC(C)(C)C)CC2)Cc2ccccc2)nc1C(=O)NS(C)(=O)=O [Example 319, tert-butyl 4-[2-[benzyl-[5-methyl-4-(methylsulfonylcarbamoyl)thiazol-2-yl]amino]ethyl]piperidine-1-carboxylate] |
| > 2000 | Cc1sc(N(Cc2ccccc2)c2cccnn2)nc1C(=O)NS(C)(=O)=O [Example 238, 2-[benzyl(pyridazin-3-yl)amino]-5-methyl-N-methylsulfonyl-thiazole-4-carboxamide] |
| > 2000 | Cc1sc(N(Cc2ccccc2)Cc2csc3cc(C(F)(F)F)ccc23)nc1C(=O)NS(C)(=O)=O [Compound 676, 2-[benzyl-[[6-(trifluoromethyl)benzothiophen-3-yl]methyl]amino]-5-methyl-N-methylsulfonyl-thiazole-4-carboxamide] |
| 39.8 | COc1cccc(CN(c2ccc(C#N)cc2)c2nc(C(=O)NS(C)(=O)=O)c(Cl)s2)c1 [Example 260, 5-chloro-2-[4-cyano-N-[(3-methoxyphenyl)methyl]anilino]-N-methylsulfonyl-thiazole-4-carboxamide] |
| > 2000 | Cc1sc(N(Cc2ccccc2)Cc2ccccn2)nc1C(=O)NS(C)(=O)=O [Example 295, 2-[benzyl(2-pyridylmethyl)amino]-5-methyl-N-methylsulfonyl-thiazole-4-carboxamide] |
| > 2000 | Cc1sc(N(Cc2ccccc2)Cc2ccccc2C#N)nc1C(=O)NS(C)(=O)=O [Example 291, 2-[benzyl-[(2-cyanophenyl)methyl]amino]-5-methyl-N-methylsulfonyl-thiazole-4-carboxamide] |

Second part, the molecule before the results:

| SMILES | EC50 [nM] |
| --- | --- |
| Cc1sc(N(Cc2ccc(OCCO)cc2)c2ccc(C#N)cc2)nc1C(=O)NS(C)(=O)=O [Compound 569, 2-[4-cyano-N-[[4-(2-hydroxyethoxy)phenyl]methyl]anilino]-5-methyl-N-methylsulfonyl-thiazole-4-carboxamide] | 631 |
| Cc1sc(N(CCc2c[nH]c3ccccc23)Cc2ccccc2)nc1C(=O)NS(C)(=O)=O [Compound 320, 2-[benzyl-[2-(1H-indol-3-yl)ethyl]amino]-5-methyl-N-methylsulfonyl-thiazole-4-carboxamide] | 631 |
| Cc1sc(N(Cc2ccccc2)c2cccc3cccnc23)nc1C(=O)NS(C)(=O)=O [Compound 53, 2-[benzyl(8-quinolyl)amino]-5-methyl-N-methylsulfonyl-thiazole-4-carboxamide] | > 2000 |
| Cc1sc(N(Cc2ccccc2)c2ccc3c(ccn3C)c2)nc1C(=O)NS(C)(=O)=O [Compound 338, 2-[benzyl-(1-methylindole-5-yl]amino]-5-methyl-N-methylsulfonyl-thiazole-4-carboxamide] | > 2000 |
| Cc1sc(N(Cc2cscn2)c2ccc(C#N)cc2)nc1C(=O)NS(C)(=O)=O [Compound 380, 2-[4-cyano-N-(thiazol-4-ylmethyl)anilino]-5-methyl-N-methylsulfonyl-thiazole-4-carboxamide] | 794 |
| Cc1sc(N(CCc2ccccn2)Cc2ccccc2)nc1C(=O)NS(C)(=O)=O [Compound 334, 2-[benzyl-[2-(2-pyridyl)ethyl]amino]-5-methyl-N-methylsulfonyl-thiazole-4-carboxamide] | > 2000 |
| Cc1sc(N(Cc2ccccc2)c2cccc(OC(F)(F)F)c2)nc1C(=O)NS(C)(=O)=O [Compound 35, 2-[N-benzyl-3-(trifluoromethoxy)anilino]-5-methyl-N-methylsulfonyl-thiazole-4-carboxamide] | > 2000 |
| Cc1sc(N(Cc2ccccc2)c2ccc(C#N)cc2)nc1C(=O)NS(=O)(=O)CCN1CCCCC1 [Compound 430, 2-(N-benzyl-4-cyano-anilino)-5-methyl-N-[2-(1-piperidyl)ethylsulfonyl]thiazole-4-carboxamide] | > 2000 |
| Cc1sc(N(CC[C@@H]2CC[C@@H](O)C2)c2ccc(C#N)cc2)nc1C(=O)NS(C)(=O)=O (racemic) [Compound 459, 2-[4-cyano-N-[2-[trans-3-hydroxycyclopentyl]ethyl]anilino]-5-methyl-N-methylsulfonyl-thiazole-4-carboxamide] | 1260 |
| Cc1sc(N(Cc2ccccc2)c2ccc(C#N)cc2)nc1C(=O)NS(=O)(=O)c1cccnc1 [Compound 381, 2-(N-benzyl-4-cyano-anilino)-5-methyl-N-(3-pyridylsulfonyl)thiazole-4-carboxamide] | 794 |
| Cc1sc(N(Cc2ccccc2)CC(O)c2ccccc2)nc1C(=O)NS(C)(=O)=O (stereo not shown) [Compound 462, 2-[benzyl-(2-hydroxy-2-phenyl-ethyl)amino]-5-methyl-N-methylsulfonyl-thiazole-4-carboxamide] | 1260 |
| Cc1sc(N(Cc2ccccc2)c2ccc(F)cc2F)nc1C(=O)NS(C)(=O)=O [Compound 36, 2-(N-benzyl-2,4-difluoro-anilino)-5-methyl-N-methylsulfonyl-thiazole-4-carboxamide] | 1260 |
| Cc1sc(N(CC2CCC(=O)CC2)c2ccc(C#N)cc2)nc1C(=O)NS(C)(=O)=O [Compound 350, 2-[4-cyano-N-[(4-oxocyclohexyl)methyl]anilino]-5-methyl-N-methylsulfonyl-thiazole-4-carboxamide] | > 2000 |
